Legend:
solubility in water = type: physicochemical; details: room temperature
Protocol: In accordance with the present invention, the solubility of the compound having the general formula (1) in water at 23° C. is measured as follows: 1.0 mg sample is weighed into an Erlenmeyer flask and is then mixed homogeneously with 4 ml of water with a spatula at 23° C. The remaining substance on the spatula is stripped off with a magnetic stirrer bar, which is then added to the Erlenmeyer flask. While stirring with a magnetic stirrer, water is added dropwise with a burette until the solution in the Erlenmeyer flask becomes clear at 23° C. After that, the solubility of compound in water is calculated by calculating the ratio of weighed compound divided by the volume of added water and then by recalculating this ratio to 1 l of water.

living cells [1] = assay: cytotoxicity test in living cells; type: cell-based; details: concentration of 1 μM
Protocol: (§1) More specifically, the cytotoxicity of DBOV-Mes-OTEG was tested in living cells. […] Moreover, the uptake of DBOV-Mes-OTEG into living cells was investigated by imaging 21 hours with low laser intensity at the spinning disk confocal microscopy (Visitron).

living cells [2] = assay: uptake into living cells, spinning disk confocal microscopy; type: cell-based
Protocol: as §1

fixed cell samples = assay: blinking-mode imaging of fixed samples in PBS; details: fixed samples in PBS without special imaging buffer; continuous exposure, laser intensity 10 kW/cm^2 for 90 min
From the text: After the aforementioned live cell imaging, the samples were fixed and imaged in phosphate-buffered saline (PBS) without special imaging buffer.

Q: With “3,4,5-tris(2,5,8,11-tetraoxatridecan-13-yloxy)phenyl substituted 6,14-dimesityldibenzo[hi,st]ovalene [DBOV-Mes-OTEG]” as the substance, how does the solubility in water (solubility in water) read?
A: The solubility in water was 100 µg/mL.

Q: What about the cytotoxicity (living cells [1]) of the same substance?
A: The cytotoxicity was “does not show any significant toxicity”.

Q: What about the intracellular location (living cells [2]; after 21 hours incubation) of the same substance?
A: Its intracellular location is “in the nucleus and nuclear membrane”.

Q: What about the “uptake / intracellular location” value (living cells [2]; beginning of the incubation) of the same substance?
A: Its value is “taken into the cytoplasm”.

Q: And the “stability of blinking signals (photostability)” value (fixed cell samples)?
A: Its value is “no significant decrease of blinking signals”.
